From ChEMBL document CHEMBL1133183, “Quantized surface complementarity diversity (QSCD): a model based on small molecule-target complementarity” (J Med Chem, 2000)

Key:
[1] = Inhibitory activity against DNA topoisomerase I
[2] = target: T1, Type-2 angiotensin II receptor (Rattus norvegicus, UniProt P35351); assay: Inhibitory activity against Angiotensin II receptor, type 2 binding
T1 sequence (P35351 whole entry): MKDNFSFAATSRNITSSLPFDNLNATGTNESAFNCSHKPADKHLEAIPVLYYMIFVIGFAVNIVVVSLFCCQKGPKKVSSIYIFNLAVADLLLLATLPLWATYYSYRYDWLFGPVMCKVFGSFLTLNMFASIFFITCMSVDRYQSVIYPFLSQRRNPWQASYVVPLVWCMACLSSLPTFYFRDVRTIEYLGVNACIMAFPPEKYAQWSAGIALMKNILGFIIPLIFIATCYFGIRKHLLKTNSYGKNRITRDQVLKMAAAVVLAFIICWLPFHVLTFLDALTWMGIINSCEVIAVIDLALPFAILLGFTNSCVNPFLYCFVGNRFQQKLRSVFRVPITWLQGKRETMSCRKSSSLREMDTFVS

[3] = target: T1, Type-2 angiotensin II receptor; assay: Binding affinity to Angiotensin II receptor, type 2
[4] = target: T2, Type-1 angiotensin II receptor (Oryctolagus cuniculus, UniProt P34976); assay: Binding affinity to Angiotensin II receptor, type 1
T2 sequence (P34976 whole entry): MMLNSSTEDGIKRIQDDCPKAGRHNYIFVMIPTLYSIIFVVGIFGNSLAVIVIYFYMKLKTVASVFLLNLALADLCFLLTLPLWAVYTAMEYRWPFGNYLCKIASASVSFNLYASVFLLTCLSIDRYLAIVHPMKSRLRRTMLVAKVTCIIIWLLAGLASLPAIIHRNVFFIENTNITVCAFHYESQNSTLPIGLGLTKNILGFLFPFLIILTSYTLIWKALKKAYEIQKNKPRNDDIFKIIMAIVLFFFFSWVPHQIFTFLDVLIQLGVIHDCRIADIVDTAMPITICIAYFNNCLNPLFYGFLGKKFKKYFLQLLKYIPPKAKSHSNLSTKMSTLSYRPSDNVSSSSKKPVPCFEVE

[5] = target: T3, Endothelin-1 receptor (Homo sapiens, UniProt P25101); assay: Binding affinity to Endothelin A receptor
T3 sequence (P25101 whole entry): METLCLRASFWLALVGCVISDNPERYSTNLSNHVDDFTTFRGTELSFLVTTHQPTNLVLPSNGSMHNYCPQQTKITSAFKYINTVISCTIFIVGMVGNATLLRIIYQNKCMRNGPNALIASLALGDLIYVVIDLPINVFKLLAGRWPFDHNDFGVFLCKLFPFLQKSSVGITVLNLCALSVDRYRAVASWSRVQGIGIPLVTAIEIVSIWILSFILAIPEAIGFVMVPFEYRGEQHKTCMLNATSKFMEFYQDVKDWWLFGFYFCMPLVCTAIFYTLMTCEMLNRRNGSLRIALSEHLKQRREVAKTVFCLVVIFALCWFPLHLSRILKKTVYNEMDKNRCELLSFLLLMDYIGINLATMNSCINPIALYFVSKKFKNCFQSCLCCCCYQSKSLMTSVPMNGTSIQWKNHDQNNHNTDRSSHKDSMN

[6] = target: Leukotriene B4 receptor 1 (Homo sapiens, UniProt Q15722); assay: Binding affinity to leukotriene B4 receptor
[7] = target: Adenosine receptor A2a (Rattus norvegicus, UniProt P30543); assay: Binding affinity to Adenosine A2A receptor
[8] = target: Prolyl endopeptidase (Sus scrofa, UniProt P23687); assay: Inhibition of Prolyl endopeptidase activity; assay type: functional
Chain of Prolyl endopeptidase (P23687 whole entry): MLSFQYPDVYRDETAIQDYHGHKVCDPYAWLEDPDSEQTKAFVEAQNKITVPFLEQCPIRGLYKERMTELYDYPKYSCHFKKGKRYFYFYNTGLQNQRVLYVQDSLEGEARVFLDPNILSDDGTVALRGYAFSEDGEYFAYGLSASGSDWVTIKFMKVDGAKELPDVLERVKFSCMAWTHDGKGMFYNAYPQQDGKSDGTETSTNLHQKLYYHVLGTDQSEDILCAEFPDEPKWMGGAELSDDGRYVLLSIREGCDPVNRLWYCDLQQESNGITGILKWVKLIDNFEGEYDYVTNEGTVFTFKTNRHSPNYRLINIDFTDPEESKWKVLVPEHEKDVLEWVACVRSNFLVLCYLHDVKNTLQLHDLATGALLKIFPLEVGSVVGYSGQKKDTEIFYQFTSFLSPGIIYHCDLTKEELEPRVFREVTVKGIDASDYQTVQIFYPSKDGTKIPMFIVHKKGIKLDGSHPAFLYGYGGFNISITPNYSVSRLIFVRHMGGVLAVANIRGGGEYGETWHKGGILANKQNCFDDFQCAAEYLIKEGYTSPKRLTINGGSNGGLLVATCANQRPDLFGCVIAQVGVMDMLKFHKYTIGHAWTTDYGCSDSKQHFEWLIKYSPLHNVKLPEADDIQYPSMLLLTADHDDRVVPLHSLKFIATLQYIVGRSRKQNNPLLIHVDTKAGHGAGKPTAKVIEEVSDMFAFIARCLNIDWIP

Chain of Leukotriene B4 receptor 1 (Q15722 whole entry): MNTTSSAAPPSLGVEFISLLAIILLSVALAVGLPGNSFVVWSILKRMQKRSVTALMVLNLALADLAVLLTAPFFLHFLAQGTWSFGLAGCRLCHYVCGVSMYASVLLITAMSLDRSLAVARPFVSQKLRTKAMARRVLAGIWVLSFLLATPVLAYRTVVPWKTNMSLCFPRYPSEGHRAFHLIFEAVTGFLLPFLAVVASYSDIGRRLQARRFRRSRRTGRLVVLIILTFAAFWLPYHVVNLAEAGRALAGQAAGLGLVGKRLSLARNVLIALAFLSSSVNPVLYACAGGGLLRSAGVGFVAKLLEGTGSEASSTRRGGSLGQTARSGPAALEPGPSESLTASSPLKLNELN
Chain of Adenosine receptor A2a (P30543 whole entry): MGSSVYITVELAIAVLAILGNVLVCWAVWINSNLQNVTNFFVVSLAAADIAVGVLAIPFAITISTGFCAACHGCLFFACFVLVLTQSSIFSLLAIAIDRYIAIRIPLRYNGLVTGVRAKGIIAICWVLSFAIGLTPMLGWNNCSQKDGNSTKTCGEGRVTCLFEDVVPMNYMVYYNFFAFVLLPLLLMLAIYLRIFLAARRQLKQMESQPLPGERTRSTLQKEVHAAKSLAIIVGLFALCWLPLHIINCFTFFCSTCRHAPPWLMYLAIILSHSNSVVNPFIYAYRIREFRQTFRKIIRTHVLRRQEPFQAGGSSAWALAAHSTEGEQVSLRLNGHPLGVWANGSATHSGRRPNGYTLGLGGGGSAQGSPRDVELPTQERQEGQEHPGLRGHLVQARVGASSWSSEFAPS

Compound: CC[C@@]1(O)C(=O)OCc2c1cc1n(c2=O)Cc2c-1nc1cnc(Br)cc1c2C
- IC50 [1]: 28 nM

Compound: CCCCc1nn(-c2cccc([N+](=O)[O-])c2)c(=O)n1Cc1ccc(-c2ccccc2S(=O)(=O)NC(=O)c2ccccc2Cl)cc1
- IC50 [2]: 31 nM
- Ki [3]: 173 nM

Compound: CCCCc1nn(-c2ccccc2C(F)(F)F)c(=O)n1Cc1ccc(-c2ccccc2-c2nnn[nH]2)cc1
- Ki [4]: 1.2 nM

Compound: COc1ccc(CC2C(c3ccc(Cl)c(Cl)c3)C(=O)O[C@@]2(O)c2ccc(OC)cc2)cc1 (stereo partly drawn)
- Ki [5]: 170 nM

Compound: CCCc1c(OCCCOc2ccc(-c3cscn3)c(COC)c2CC2CC2)ccc2c1O[C@@H](C(=O)O)CC2
- Ki [6]: 3.2 nM

Compound: CCCCc1nn(-c2ccccc2C(F)(F)F)c(=O)n1Cc1ccc(-c2ccccc2S(=O)(=O)NC(=O)OC(C)(C)C)cc1
- IC50 [2]: 0.45 nM
- Ki [3]: 17 nM

Compound: CCNC(=O)[C@H]1C[C@@H](n2cnc3c(N)nc(C#Cc4nccs4)nc32)[C@H](OC)[C@@H]1OC
- Ki [7]: 41.3 nM

Compound: CCOC(=O)C(=O)[C@@H]1CCCN1C(=O)[C@@H]1CCCN1C(=O)CCCc1ccccc1
- IC50 [8]: 10.3 nM

Compound: CC[C@@]1(O)C(=O)OCc2c1cc1n(c2=O)Cc2c-1nc1cnc(C#N)cc1c2C
- IC50 [1]: 143 nM

Compound: CCCCc1nn(-c2ccccc2C(C)C)c(=O)n1Cc1ccc(-c2ccccc2-c2nn[nH]n2)cc1
- Ki [4]: 1.4 nM

Compound: CCCc1c(OCCCOc2ccc3c(c2CCC)O[C@@H](C(=O)O)CC3)ccc(C(C)=O)c1CO
- Ki [6]: 320 nM
